Read-outs that look alike come from different tables or passages of the source.
Tests used:
[1] = target: T1, AGTR1 (Homo sapiens, UniProt P30556); assay: DiscoveRx β-arrestin2 recruitment assay (enzyme complementation, Pathunter CHO-K1 AGTR1 β-arrestin cell line); format: cell-based
T1 construct: host or cells: Pathunter CHO-K1 AGTR1 β-arrestin cell line (CHO-K1)
T1 sequence (P30556 1-359): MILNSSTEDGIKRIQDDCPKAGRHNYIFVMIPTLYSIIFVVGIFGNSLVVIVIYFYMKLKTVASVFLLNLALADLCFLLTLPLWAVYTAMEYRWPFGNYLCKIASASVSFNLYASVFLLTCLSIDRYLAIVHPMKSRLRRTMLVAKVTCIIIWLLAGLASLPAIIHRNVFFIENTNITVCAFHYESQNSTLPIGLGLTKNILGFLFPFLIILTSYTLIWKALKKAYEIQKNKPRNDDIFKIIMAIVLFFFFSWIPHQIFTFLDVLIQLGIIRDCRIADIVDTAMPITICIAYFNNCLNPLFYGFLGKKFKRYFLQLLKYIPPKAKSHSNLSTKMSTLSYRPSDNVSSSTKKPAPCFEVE
Procedure, shortened: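 Chemiluminescent enzyme-complementation read-out of β-arrestin2 recruitment to AGTR1 in engineered CHO-K1 cells after 90 min compound exposure at 37° C. Values are 4-parameter logistic EC50s in agonist mode, IC50s in antagonist mode, with efficacy relative to the maximal All response.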

[2] = target: T2, hAT1R (Homo sapiens, UniProt P30556); assay: BRET β-arrestin2 biosensor assay, higher receptor expression (hAT1R 5 ng/well), HEK293 cells; format: cell-based; conditions: for EC50: High AT1R Expression
T2 sequence (P30556 1-359): T1 sequence (P30556 1-359)

[3] = target: T2, hAT1R; assay: BRET Gq biosensor assay, agonist response, HEK293 cells; format: cell-based; conditions: section of the 42nd table directly before the BRET P63 section
Procedure, shortened: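 Agonist EC50 derived from a 4-parameter fit of BRET2 ratio (GFP 515 nm/Rluc 410 nm), scaled between unstimulated control and maximal AngII response. Readings taken 5 min after compound addition at room temperature, with 2 μM coelenterazine, in HEK293 cells expressing hAT1R, Gαq-Rluc, Gβ1 and GFP-Gγ1 (transfected two days earlier).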

[4] = target: T2, hAT1R; assay: cell-based; conditions: agonist mode; for EC50: read-out: BRET P63 EC50
[5] = DiscoveRx β-arrestin2 recruitment
[6] = DiscoveRx β-arrestin2 recruitment, maximal response

| Compound | EC50 [1, 5] | DiscoveRx β-arrestin2 Ymax (%) [1, 6] | BRET β-Arrestin2 High AT1R Expression Ymax (%) [2] | EC50 [2] | EC50 [3] | EC50 [4] | BRET P63 Ymax [4] | DiscoveRx β-arrestin2 Ymax (%) [1, 5] | EC50 [1] |
| --- | --- | --- | --- | --- | --- | --- | --- | --- | --- |
| CCCCC(=O)N(Cc1ccc(-c2cc(-c3ccccn3)ccc2-c2nn[nH]n2)cc1)C1(C(=O)O)CCCCC1 [Example 293, 1-(N-((5′-(Pyridin-2-yl)-2′-(2H-tetrazol-5-yl)-[1,1′-biphenyl]-4-yl)methyl)pentanamido)cyclohexanecarboxylic acid] | 187 nM | 40.4% | 70.2% | 136 nM | 1240 nM | > 100000 nM | – | – | – |
| CCCCC(=O)N(Cc1ccc(-c2cc(-c3cccc(C)n3)ccc2-c2nn[nH]n2)cc1)C1(C(=O)O)CCCCC1 [Example 294] | 87.3 nM | 28.9% | 24.7% | 150 nM | 427 nM | > 100000 nM | – | – | – |
| CCCCC(=O)N(Cc1ccc(-c2cc(-c3cccc(OC)n3)ccc2-c2nn[nH]n2)cc1)C1(C(=O)O)CCCCC1 [Example 296] | 128 nM | 41.8% | 79.9% | 68.8 nM | 619 nM | 307 nM | 6.9% | – | – |
| CCCCC(=O)N(Cc1ccc(-c2cc(N3CCCC(C)C3)ccc2-c2nn[nH]n2)cc1)C1(C(=O)O)CCCCC1 (stereo not drawn) [Example 297, 1-(N-((5′-(3-methylpiperidin-1-yl)-2′-(2H-tetrazol-5-yl)-[1,1′-biphenyl]-4-yl)methyl)pentanamido)cyclohexanecarboxylic acid] | 142 nM | 30.5% | 74.5% | 327 nM | 621 nM | > 100000 nM | – | – | – |
| CCCCC(=O)N(Cc1ccc(-c2cc(-c3ccccc3)ccc2-c2nn[nH]n2)cc1)C1(C(=O)O)CCN(c2ccccc2)CC1 [Example 298, 4-(N-((6′-(2H-Tetrazol-5-yl)-[1,1′:3′,1″-terphenyl]-4-yl)methyl)pentan-amido)-1-phenylpiperidine-4-carboxylic acid] | 278 nM | 31.3% | 68.8% | 270 nM | 958 nM | > 100000 nM | – | – | – |
| CCCCc1nc(Cl)c(C(=O)O)n1Cc1ccc(-c2cc(-c3cccc4[nH]ccc34)ccc2-c2nn[nH]n2)cc1 [Example 392, 1-((5′-(1H-indol-4-yl)-2′-(2H-tetrazol-5-yl)-1,1,1′-biphenyll-4-yl)methyl)-2-butyl-4-chloro-1H-imidazole-5-carboxyimc acid] | 45.2 nM | 29.2% | 79.1% | 17.2 nM | 3320 nM | > 100000 nM | – | – | – |
| CCCCC(=O)N(Cc1ccc(-c2cc(Oc3ccccc3)ccc2-c2nn[nH]n2)cc1)[C@H](C(=O)O)C(C)C [Example 435, (S)-3-Methyl-2-(N-((5′-phenoxy-2′-(2H-tetrazol-5-yl)-[1,1′-biphenyl]-4-yl)methyl)pentanamido)butanoic acid] | 1410 nM | – | 12.3% | 305 nM | > 100000 nM | – | – | 19.1% | – |
| CCCCC(=O)N(Cc1ccc(-c2cc(Oc3cccnc3)ccc2-c2nn[nH]n2)cc1)[C@H](C(=O)O)C(C)C [Example 436] | 993 nM | – | 58.0% | 13600 nM | > 100000 nM | – | – | 31.2% | – |
| CCCCC(=O)N(Cc1ccc(-c2cc(Oc3cccc(OC(F)(F)F)c3)ccc2-c2nn[nH]n2)cc1)[C@H](C(=O)O)C(C)C [Example 437] | 3920 nM | – | 16.4% | 168 nM | > 100000 nM | – | – | 26.4% | – |
| CCCCC(=O)N(Cc1ccc(-c2cc(-c3cc(F)cc(F)c3)ccc2-c2nn[nH]n2)cc1)[C@H](C(=O)O)C(C)C [Example 438, (S)-2-(N-((3″,5″-Difluoro-6′-(2H-tetrazol-5-yl)-[1,1′:3′,1″-terphenyl]-4-yl)methyl)pentanamido)-3-methylbutanoic acid] | 20.4 nM | – | 74.6% | 34.8 nM | 718 nM | – | – | 41.7% | – |
| CCCCC(=O)N(Cc1ccc(-c2cc(-c3cccnc3OC)ccc2-c2nn[nH]n2)cc1)[C@H](C(=O)O)C(C)C [Example 439] | 108 nM | – | 35.8% | 117 nM | 386 nM | – | – | 26.4% | – |
| CCCCC(=O)N(Cc1ccc(-c2cc(-c3ccc(NC(C)=O)cc3)ccc2-c2nn[nH]n2)cc1)[C@H](C(=O)O)C(C)C [Example 440] | 241 nM | – | 50.1% | 28300 nM | 582 nM | – | – | 13.6% | – |
| CCCCC(=O)N(Cc1ccc(-c2cc(-c3ccc4ncccc4c3)ccc2-c2nn[nH]n2)cc1)[C@H](C(=O)O)C(C)C [Example 441] | 101 nM | – | 64.3% | 57 nM | > 100000 nM | – | – | 39.3% | – |
| CCCCC(=O)N(Cc1ccc(-c2cc(-c3cnn(C)c3)ccc2-c2nn[nH]n2)cc1)[C@H](C(=O)O)C(C)C [Example 442] | 105 nM | – | 17.2% | 303 nM | > 100000 nM | – | – | 10.9% | – |
| CCCCC(=O)N(Cc1ccc(-c2cc(-c3ccccn3)ccc2-c2nn[nH]n2)cc1)[C@H](C(=O)O)C(C)C [Example 443, (S)-3-Methyl-2-(N-((5′-(pyridin-2-yl)-2′-(2H-tetrazol-5-yl)-[1,1′-biphenyl]-4-yl)methyl)pentanamido)butanoic] | 124 nM | – | 83.9% | 153 nM | 77.1 nM | 365 nM | 4.5% | 36.5% | – |
| CCCCC(=O)N(Cc1ccc(-c2cc(-c3cccc(C)n3)ccc2-c2nn[nH]n2)cc1)[C@H](C(=O)O)C(C)C [Example 444] | 125 nM | – | 46.5% | 147 nM | 258 nM | > 100000 nM | – | 36.3% | – |
| CCCCC(=O)N(Cc1ccc(-c2cc(-c3cccc(OC)n3)ccc2-c2nn[nH]n2)cc1)[C@H](C(=O)O)C(C)C [Example 446] | 179 nM | – | 84.3% | 144 nM | > 100000 nM | 668 nM | 4.5% | 29.8% | – |
| CCCCC(=O)N(Cc1ccc(-c2cc(N3CC(C)(C)c4ccccc43)ccc2-c2nn[nH]n2)cc1)[C@H](C(=O)O)C(C)C [Example 450] | 479 nM | – | 77.6% | 308 nM | 5260 nM | – | – | 23.1% | > 100000 nM |
| CCCCC1=NC2(CCCC2)C(=O)N1Cc1ccc(-c2cc(-c3ccccc3)ccc2-c2nn[nH]n2)nc1 [Example 451, 3-((6-(4-(1H-Tetrazol-5-yl)-[1,1′-biphenyl]-3-yl)pyridin-3-yl)methyl)-2-butyl-1,3-diazaspiro[4.4]non-1-en-4-one] | 23.3 nM | – | 44.8% | 13700 nM | 4110 nM | – | – | 11.4% | – |
| CCCCC1=NC2(CCCC2)C(=O)N1Cc1ccc(-c2cc(-c3ccccc3)ccc2-c2nn[nH]n2)cn1 [Example 452, 3-((5-(4-(2H-Tetrazol-5-yl)-[1,1′-biphenyl]-3-yl)pyridin-2-yl)methyl)-2-butyl-1,3-diazaspiro[4.4]non-1-en-4-one] | 8.1 nM | – | 84.6% | 33.8 nM | 44.8 nM | – | – | 36.1% | – |
| CCCCC1=NC2(CCCC2)C(=O)N1Cc1ccc(-c2cc(-c3ccccc3)ccc2-c2noc(=O)[nH]2)cn1 [Example 453, 3-(3-(6-((2-Butyl-4-oxo-1,3-diazaspiro[4.4]non-1-en-3-yl)methyl)pyridin-3-yl)-[1,1′-biphenyl]-4-yl)-1,2,4-oxadiazol-5(4H)-one] | 31.4 nM | – | 95.9% | 13 nM | 24 nM | – | – | 59.5% | – |
| CCCCC1=NC2(CCCC2)C(=O)N1Cc1ccc(-c2cc(Oc3ccccc3)ccc2-c2nnn[nH]2)cc1 [Example 454, 2-Butyl-3-((5′-phenoxy-2′-(1H-tetrazol-5-yl)-[1,1′-biphenyl]-4-yl)methyl)-1,3-diazaspiro[4.4]non-1-en-4-one] | 22.7 nM | – | 18.4% | 56.2 nM | > 100000 nM | – | – | 11.2% | – |

From US12037324B2, “Biarylmethyl heterocycles” (Université de Montréal, priority 2016, dated 2024)
